Results as given in patent US10646501B2, “Reducing the reproductive capacity of mammals” (priority 2012, dated 2020).

Assays:
[1] = system: rat pup ovaries (ovarian follicles); assay: in vitro ovarian culture bioassay of follicle depletion (ovaries cultured 8 days, histology, follicle counts); format: cell-based; set-up: key to Biological activity (ranking, follicle depletion): 1—least chemical reactivity/biological activity; 6—most chemical reactivity/biological activity; settings: for follicle depletion, diepoxide combined with Triptolide / Biological activity (ranking, follicle depletion): diepoxide 30 μM + Trip 5 nM; for Biological activity (ranking, follicle depletion): rank 1 to 6
Source text: The biological activity of the epoxides can be evaluated in an in vitro bioassay using rat pup ovaries based on method reported in “Characterization of a rat in vitro ovarian culture system to study the ovarian toxicant 4-vinylcyclohexene diepoxide.” Devine et. al. 2002, Taxicol. Appl. Pharmacol. 184, 107-115, incorporated herein by reference. Biological activity can be determined by follicle counts in ovarian sections after week long culture with micro molar concentrations of the epoxide. In general, biologically active epoxides will also be chemically active as well but not vice versa.
FIGS. 3A, 3B and 3C illustrate an in vitro culture system for evaluating the efficacy of follicle-depletion compositions (developed by Patrick J. Devine). As set forth in the various examples herein, ovaries are cultured with VCD with or without triptolide in serum-free media for 8 days, no gonadotropins present, no media changes and active ingredients added just once at start of culture. Ovaries are collected and processed for histology to perform follicle counting.
In vitro bioassay of follicle depletion, ovaries cultured for 8 days with different chemicals
Control—no chemicals, Triptolide—5 nM (Trip), Diepoxides. RDE, CHDE, Quetol, ERL 4221, BDE, GDE, each at 30 μM+Trip 5 nM
Ovaries were prepared for histological analysis for determination of follicle depletion

[2] = epoxide assay of chemical reactivity (alkylating assay using 4-(p-nitrobenzyl) pyridine); format: physicochemical; set-up: key to Chemical reactivity (ranking): 1—least chemical reactivity/biological activity; 6—most chemical reactivity/biological activity; settings: for Chemical reactivity (ranking): reactivity in epoxide assay, rank 1 to 6
Source text: The chemical reactivity of the epoxides can determined in an alkylating assay using 4-(p-nitrobenzyl) pyridine (NBP) based on the method reported in “Detection of epoxides with 4-(p-nitrobenzyl) pyridine.” Agarwal et. al. 1979, Bull. Environm. Contam. Toxicol. 23, 825-829, incorporated herein by reference.
Compared chemical (reactivity in epoxide assay) to biological activity (follicle depletion)

male rat fertility = settings: oral exposure; cited from earlier work
ovarian failure = assay: VCD alone as the only active ingredient, premature ovarian failure; format: in vivo; settings: low concentrations or short exposure durations <15 days
Source text: Premature ovarian failure is when no more ovulations occur in spite of eggs/follicles being present in an ovary. For compositions and methods to function as a means of population control, the ovarian failure desirably occurs rapidly, for example within 10 days of treatment for rodents.

[3] = system: Sprague Dawley rats (Rattus norvegicus); settings: via gavage; cited from earlier work
[4] = 30 μm VCD alone, cultured ovary, 8 days

SMILES | follicle depletion, diepoxide combined with Triptolide ([1]; ovaries cultured 8 days) | Biological activity (ranking, follicle depletion) ([1]; ovaries cultured 8 days) | Chemical reactivity (ranking) [2] | also measured
C1CC(COCC2CO2)CCC1COCC1CO1 (centres unmarked) [CHDE, 1,4-cyclohexanedimethanol diglycidyl ether] | caused significant follicle depletion | 4 | 3 | –
O=C(OCC1CCC2OC2C1)C1CCC2OC2C1 (centres unmarked) [ERL 4221, 3,4-epoxy-cyclohexyl-methyl-3,4-epoxycyclohexyl carboxylate] | caused significant follicle depletion | 6 | 1 | biological activity in words ([1]; when combined with Trip, among the six diepoxides): most biologically active; chemical reactivity in words ([2]; among the six diepoxides): least chemically reactive
CC(C)[C@]12O[C@H]1[C@@H]1O[C@]13[C@]1(O[C@H]1C[C@H]1C4=C(CC[C@@]13C)C(=O)OC4)[C@@H]2O [Triptolide, triptolide] | – | – | – | effect on male rat fertility (male rat fertility): compromise male rat fertility to ultimate sterility; follicle depletion, triptolide alone ([1]; Triptolide 5 nM alone, ovaries cultured 8 days): did not cause significant follicle depletion
C(COCC1CO1)OCC1CO1 (centres unmarked) [Quetol, ethylene glycol diglycidyl ether] | caused significant follicle depletion | 5 | 2 | –
Oc1cccc(OCC2CO2)c1 (centres unmarked) [RDE, resorcinol glycidyl ether] | did not cause significant follicle depletion | 1 | 4 | –
C1CC2OC2CC1C1CO1 (centres unmarked) [VCD, 4-vinylcyclohexene diepoxide] | – | – | – | premature ovarian failure (ovarian failure): did not cause premature ovarian failure; effect on the other stages of follicles [1, 4]: not significantly affected; reduction in primordial follicles [1, 4]: 38%; primordial follicle depletion [3]: efficacious to cause non-regenerating primordial follicle depletion
C(CCOCC1CO1)COCC1CO1 (centres unmarked) [BDE, 1,4-butanediol diglycidyl ether] | caused significant follicle depletion | 3 | 6 | –
OCC(COCC1CO1)OCC1CO1 (centres unmarked) [GDE, glycerol diglycidyl ether] | caused significant follicle depletion | 2 | 5 | –
